Columns and labels:
FII, FVII and FX = test: Sequential PT-INR (PP-INR) measurements over 49 days in a single patient starting on warfarin; format: in vivo, human; settings: FIG. 6, grey zone
Description: Both the Quick prothrombin time (PT) and the Owren's prothrombin time (prothrombin proconverting time, P&P test) were measured on patient samples. The STA-R coagulation analyzer was used (Diagnostika Stago, Asnieres, France). The PT was done using the STA-Néoplastine® CI plus as coagulation reagent, with and ISI value of 1.3 and the P&P was done using the STA-SPA 50 reagent with ISI of 1.01 (both from Diagnostika Stago). The P&P reagent is similar to the PT reagent but also consists of added absorbed bovine plasma as a source of coagulation factor V and fibrinogen and, thus, is only sensitive to the activity of FII, FVII and FX. The P&P percentages were calculated from a standard curve based on serially diluted pooled plasma in Owren's buffer. The INR is calculate as described above.
In FIG. 6 we show sequential measurements of Fiix-INR, PP-INR, FII, FVII and FX over 49 days in a single patient starting on warfarin. The amount of coagulation factors (percentage) is shown on the left Y-axis and the INR value on the right Y-axis. The change in INR in relation to changes in concentrations of the VKD factors can be derived from the graph. […]

FII and FX = test: Sequential Fiix-INR (Fiix-PT) measurements over 49 days in a single patient starting on warfarin; format: in vivo, human; settings: FIG. 6
From the text: The test results may be obtained as clotting time, clotting time ratio or any other endpoint measuring thrombin generation or fibrin formation. […] Since this is a variant of the prothrombin time we call it “Fiix-prothrombin time” or Fiix-PT.
In our new method, which we call Fiix-method, a test plasma sample (patient plasma) is mixed with normal plasma that has been immunodepleted of both FII and FX (Fiix-deficient plasma). Using such mixture, by adding thromboplastin and calcium, a prothrombin time variant can be measured that is only sensitive to FII and FX, ie Fiix-PT. In the Fiix-PT the proportions of test plasma to Fiix-deficient plasma can be in the range from 1:1 to 1:20 parts, preferably in the range from 1:2 to 1:10 (see below).
Based on the experiments shown in FIG. 4 we decided to measure the Fiix-PT by mixing […] of a 1:7 dilution of test plasma with 25 uL of Fiix-deficient plasma (i.e. final proportion 1 part test plasma to 2.2 parts Fiix-deficient plasma). We then measured “Fiix-PT” in samples from 38 patients on stable warfarin therapy and calculated the international normalized ratio (“Fiix-INR”). […] Corresponding results were found when Fiix-INR was correlated with Quick PT based INR(PT-INR, data not shown).
In FIG. 6 we show sequential measurements of Fiix-INR, PP-INR, FII, FVII and FX over 49 days in a single patient starting on warfarin. […]

## CC(=O)CC(c1ccccc1)c1c(O)c2ccccc2oc1=O (centres unmarked) [warfarin]
FII, FVII and FX
  day on which the patient has reached an acceptable anticoagulated range by PT-INR: 3 days
FII and FX
  day on which the patient reaches an acceptable INR value (acceptable anticoagulation) by Fiix-INR: 5 days

— patent publication US9234902B2, “Method for monitoring anticoagulant therapy” (priority 2011, dated 2016)
